Data on 21 compounds can be found in PubChem BioAssay AID330 (DTP/NCI, 2004).

The test system of this assay is P388 leukemia ip, CD2F1 mice, survival T/C. As to the kind of experiment: NCI In Vivo Anticancer Drug Screen. Data for tumor model P388 Leukemia (intraperitoneal) in CD2F1 (CDF1) mice. As to conditions: endpoint: median survival time, higher = longer survival. A digest of the protocol: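 Mice carrying the transplanted tumor received test compound or vehicle. Survival was recorded in each group, and the value is the treated-group measurement divided by that of the vehicle-treated control group.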

[1] abbreviates: dose: 50.0 mg/kg/injection, schedule: Q01DX005 (ip), vehicle: Klucel (hydroxypropylcellulose) (HPC).
Setting [2] is: dose: 100.0 mg/kg/injection, schedule: Q01DX005 (ip), vehicle: Klucel (hydroxypropylcellulose) (HPC).
[3] abbreviates: dose: 200.0 mg/kg/injection, schedule: Q01DX005 (ip), vehicle: Klucel (hydroxypropylcellulose) (HPC).
Setting [4] is: dose: 60.0 mg/kg/injection, schedule: Q01DX005 (ip), vehicle: saline with Tween-80.
Setting [5] is: dose: 120.0 mg/kg/injection, schedule: Q01DX005 (ip), vehicle: saline with Tween-80.
The mark [6] stands for this setting: dose: 240.0 mg/kg/injection, schedule: Q01DX005 (ip), vehicle: saline with Tween-80.
The mark [7] stands for this setting: dose: 100.0 mg/kg/injection, schedule: Q04DX003 (ip), vehicle: saline.
Where [8] appears, read: dose: 200.0 mg/kg/injection, schedule: Q04DX003 (ip), vehicle: saline.
Setting [9] is: dose: 400.0 mg/kg/injection, schedule: Q04DX003 (ip), vehicle: saline.
The mark [10] stands for this setting: dose: 50.0 mg/kg/injection, schedule: Q01DX005 (ip), vehicle: saline with Tween-80.
Where [11] appears, read: dose: 100.0 mg/kg/injection, schedule: Q01DX005 (ip), vehicle: saline with Tween-80.
The mark [12] stands for this setting: dose: 100.0 mg/kg/injection, schedule: Q01DX009 (ip), vehicle: saline with Tween-80.
Setting [13] is: dose: 60.0 mg/kg/injection, schedule: Q01DX005 (ip), vehicle: Klucel (hydroxypropylcellulose) (HPC).

SMILES strings stand for the structures. Where “and” joins values, the source holds several entries; their conditions need not be identical. Identical values can stand only once. Inconclusive results and toxic doses are left out.

With `CCc1cccc(CC)c1NC(=O)C(Sc1nc(-c2cccs2)cc(C(F)(F)F)c1C#N)c1ccccc1` (stereo unspecified), the T/C runs as follows: under setting [1], 94 % of control; under setting [2], 94 % of control; under setting [3], 89 % of control.
On to `Cc1ccc(N=Cc2cccs2)cc1Cl`, for which the T/C is 94 % of control (dose: 50.0 mg/kg/injection, schedule: Q01DX009 (ip), vehicle: Klucel (hydroxypropylcellulose) (HPC)); 113 % of control (dose: 100.0 mg/kg/injection, schedule: Q01DX009 (ip), vehicle: Klucel (hydroxypropylcellulose) (HPC)); 106 % of control (dose: 200.0 mg/kg/injection, schedule: Q01DX009 (ip), vehicle: Klucel (hydroxypropylcellulose) (HPC)).
With `COC(=O)c1cc2c(oc1=O)-c1ccccc1N(C=O)C2`, the T/C under setting [4] was 86 % of control, the T/C under setting [5] is 88 % of control and the T/C under setting [6] was 98 % of control.
Turning to `CC(=O)N(O)c1ccc(C(N)=O)cc1`, the T/C is, setting by setting: (dose: 50.0 mg/kg/injection, schedule: Q01DX009 (ip), vehicle: saline) 99 % of control; (dose: 100.0 mg/kg/injection, schedule: Q01DX009 (ip), vehicle: saline) 106 % of control; (dose: 200.0 mg/kg/injection, schedule: Q01DX009 (ip), vehicle: saline) 106 % of control.
In the case of `CC(/C=N\NC(N)=O)=N/N=C(N)N`, the T/C by setting is: under setting [7], 94 % of control; under setting [8], 94 % of control; under setting [9], 92 % of control.
As to `CN(C)c1ccc2c(Cl)cc(=O)[nH]c2c1`, the T/C is 97 % of control under setting [4], 97 % of control under setting [5] and 97 % of control under setting [6].
As to `C=CC(C)(O)CS(=O)c1ccccc1` (stereo unspecified), the T/C was 100 % of control under setting [7], 101 % of control under setting [8] and 108 % of control under setting [9].
`CC(Oc1cc(Cl)c(Cl)cc1Cl)C(=O)NC(Cc1ccccc1)C(=O)O` (stereo unspecified): the T/C reads like this: under setting [10], 105 % of control; under setting [11], 109 % of control; (dose: 200.0 mg/kg/injection, schedule: Q01DX005 (ip), vehicle: saline with Tween-80) 95 % of control.
Take `CCOC(=O)c1ccc(NC(=O)c2ccccc2)cc1`: the T/C was 96 % of control (dose: 50.0 mg/kg/injection, schedule: Q01DX001 (ip), vehicle: Klucel (hydroxypropylcellulose) (HPC)); 90 % of control (dose: 100.0 mg/kg/injection, schedule: Q01DX001 (ip), vehicle: Klucel (hydroxypropylcellulose) (HPC)); 92 % of control (dose: 200.0 mg/kg/injection, schedule: Q01DX001 (ip), vehicle: Klucel (hydroxypropylcellulose) (HPC)); 95 % of control (dose: 400.0 mg/kg/injection, schedule: Q01DX001 (ip), vehicle: Klucel (hydroxypropylcellulose) (HPC)).
Regarding `OCc1c(CO)c(-c2ccc(Cl)c(Cl)c2)n2c1CCC2`, the T/C runs as follows: (dose: 13.5 mg/kg/injection, schedule: Q01DX009 (ip), vehicle: saline with Tween-80) 107 % of control; (dose: 27.0 mg/kg/injection, schedule: Q01DX009 (ip), vehicle: saline with Tween-80) 109 % of control; (dose: 54.0 mg/kg/injection, schedule: Q01DX009 (ip), vehicle: saline with Tween-80) 109 % of control; under setting [12], 116 % of control and 118 % of control; (dose: 200.0 mg/kg/injection, schedule: Q01DX009 (ip), vehicle: saline with Tween-80) 116 % of control.
For the compound `O=C(CCS(=O)O)c1cccs1`, the T/C runs as follows: under setting [7], 99 % of control; under setting [8], 96 % of control; under setting [9], 92 % of control.
Take `NC(=O)c1cncc(CCC(O)C(=O)O)c1` (stereo unspecified): the T/C was 96 % of control (dose: 25.0 mg/kg/injection, schedule: Q04DX003 (ip), vehicle: Klucel (hydroxypropylcellulose) (HPC)); 91 % of control (dose: 50.0 mg/kg/injection, schedule: Q04DX003 (ip), vehicle: Klucel (hydroxypropylcellulose) (HPC)); 100 % of control (dose: 100.0 mg/kg/injection, schedule: Q04DX003 (ip), vehicle: Klucel (hydroxypropylcellulose) (HPC)).
`O=Cc1cc(CCl)ccc1O`: the T/C was 103 % of control (dose: 12.5 mg/kg/injection, schedule: Q01DX005 (ip), vehicle: saline with Tween-80); 110 % of control (dose: 25.0 mg/kg/injection, schedule: Q01DX005 (ip), vehicle: saline with Tween-80); 113 % of control under setting [10]; 98 % of control under setting [11].
Consider `O[C@H]1c2cccn2-c2ccccc2S[C@H]1c1ccccc1`, for which the T/C runs as follows: under setting [13], 91 % of control; (dose: 120.0 mg/kg/injection, schedule: Q01DX005 (ip), vehicle: Klucel (hydroxypropylcellulose) (HPC)) 94 % of control; (dose: 240.0 mg/kg/injection, schedule: Q01DX005 (ip), vehicle: Klucel (hydroxypropylcellulose) (HPC)) 102 % of control.
Consider `Nc1ccc(C(=O)Nc2ccccc2N)cc1`, for which the T/C (dose: 100.0 mg/kg/injection, schedule: Q04DX003 (ip), vehicle: saline with Tween-80) is 100 % of control; the T/C (dose: 200.0 mg/kg/injection, schedule: Q04DX003 (ip), vehicle: saline with Tween-80) is 99 % of control; the T/C (dose: 400.0 mg/kg/injection, schedule: Q04DX003 (ip), vehicle: saline with Tween-80) is 108 % of control.
For the compound `CSCCC(NC=O)C(=O)NC(CC(C)C)C(=O)NC(Cc1ccccc1)C(=O)O` (stereo unspecified), the T/C was 98 % of control (dose: 12.5 mg/kg/injection, schedule: Q01DX005 (ip), vehicle: distilled water + Tween-80); 98 % of control (dose: 25.0 mg/kg/injection, schedule: Q01DX005 (ip), vehicle: distilled water + Tween-80); 100 % of control (dose: 50.0 mg/kg/injection, schedule: Q01DX005 (ip), vehicle: distilled water + Tween-80); 89 % of control (dose: 100.0 mg/kg/injection, schedule: Q01DX005 (ip), vehicle: distilled water + Tween-80); 97 % of control (dose: 200.0 mg/kg/injection, schedule: Q01DX005 (ip), vehicle: distilled water + Tween-80).
As to `COC(=O)c1c(C)cc(OC)c(C/C=C(\C)CCCc2coc(C=C(C)C)c2)c1OC`, the T/C is 106 % of control (dose: 4.5 mg/kg/injection, schedule: Q01DX005 (ip), vehicle: Klucel (hydroxypropylcellulose) (HPC)); 100 % of control (dose: 9.0 mg/kg/injection, schedule: Q01DX005 (ip), vehicle: Klucel (hydroxypropylcellulose) (HPC)); 99 % of control (dose: 18.0 mg/kg/injection, schedule: Q01DX005 (ip), vehicle: Klucel (hydroxypropylcellulose) (HPC)); 98 % of control (dose: 36.0 mg/kg/injection, schedule: Q01DX005 (ip), vehicle: Klucel (hydroxypropylcellulose) (HPC)); 97 % of control under setting [1]; 104 % of control (dose: 72.0 mg/kg/injection, schedule: Q01DX005 (ip), vehicle: Klucel (hydroxypropylcellulose) (HPC)). Further, the T/C by setting is: under setting [2], 98 % of control; under setting [3], 99 % of control.
With `CCCCCCCCCCCCCCCCCC(=O)Nc1ccn(C2OC(CO)C(O)C2O)c(=O)n1` (stereo unspecified), the T/C (dose: 6.25 mg/kg/injection, schedule: Q01DX009 (ip), vehicle: saline with Tween-80) was 196 % of control; the T/C (dose: 12.5 mg/kg/injection, schedule: Q01DX009 (ip), vehicle: saline with Tween-80) was 177 % of control and 227 % of control (2×); the T/C (dose: 25.0 mg/kg/injection, schedule: Q01DX009 (ip), vehicle: saline with Tween-80) is 113 % of control and 267 % of control and 270 % of control; the T/C (dose: 50.0 mg/kg/injection, schedule: Q01DX009 (ip), vehicle: saline with Tween-80) is 195 % of control and 267 % of control and 270 % of control; the T/C under setting [12] was 86 % of control and 92 % of control.
Take `O=C1CSC(=S)N1c1ccc(Cl)c(C(F)(F)F)c1`: the T/C reads like this: (dose: 50.0 mg/kg/injection, schedule: Q01DX009 (ip), vehicle: suspension in saline) 108 % of control; (dose: 100.0 mg/kg/injection, schedule: Q01DX009 (ip), vehicle: suspension in saline) 101 % of control; (dose: 200.0 mg/kg/injection, schedule: Q01DX009 (ip), vehicle: suspension in saline) 104 % of control.
In the case of `O=C(NCCCCOc1ccc([N+](=O)[O-])cc1Cl)NC1CCCCC1`, the T/C is 90 % of control (dose: 50.0 mg/kg/injection, schedule: Q01DX001 (ip), vehicle: saline with Tween-80); 100 % of control (dose: 100.0 mg/kg/injection, schedule: Q01DX001 (ip), vehicle: saline with Tween-80); 100 % of control (dose: 200.0 mg/kg/injection, schedule: Q01DX001 (ip), vehicle: saline with Tween-80).
Turning to `CN(C)C(=O)n1cc(Cl)c(=O)c2c3ncn(C)c3ccc21`, the T/C under setting [13] was 108 % of control, the T/C under setting [2] was 101 % of control and the T/C under setting [3] is 100 % of control.
